Drawing on ChEMBL document CHEMBL3351796, “Discovery of potent and selective sirtuin 2 (SIRT2) inhibitors using a fragment-based approach” (J Med Chem, 2014), this text covers inhibition and IC50 for 42 molecules.

The target of assay [1] is T1, NAD-dependent protein deacetylase sirtuin-1 (Homo sapiens) (UniProt Q96EB6).
T1 sequence (whole entry): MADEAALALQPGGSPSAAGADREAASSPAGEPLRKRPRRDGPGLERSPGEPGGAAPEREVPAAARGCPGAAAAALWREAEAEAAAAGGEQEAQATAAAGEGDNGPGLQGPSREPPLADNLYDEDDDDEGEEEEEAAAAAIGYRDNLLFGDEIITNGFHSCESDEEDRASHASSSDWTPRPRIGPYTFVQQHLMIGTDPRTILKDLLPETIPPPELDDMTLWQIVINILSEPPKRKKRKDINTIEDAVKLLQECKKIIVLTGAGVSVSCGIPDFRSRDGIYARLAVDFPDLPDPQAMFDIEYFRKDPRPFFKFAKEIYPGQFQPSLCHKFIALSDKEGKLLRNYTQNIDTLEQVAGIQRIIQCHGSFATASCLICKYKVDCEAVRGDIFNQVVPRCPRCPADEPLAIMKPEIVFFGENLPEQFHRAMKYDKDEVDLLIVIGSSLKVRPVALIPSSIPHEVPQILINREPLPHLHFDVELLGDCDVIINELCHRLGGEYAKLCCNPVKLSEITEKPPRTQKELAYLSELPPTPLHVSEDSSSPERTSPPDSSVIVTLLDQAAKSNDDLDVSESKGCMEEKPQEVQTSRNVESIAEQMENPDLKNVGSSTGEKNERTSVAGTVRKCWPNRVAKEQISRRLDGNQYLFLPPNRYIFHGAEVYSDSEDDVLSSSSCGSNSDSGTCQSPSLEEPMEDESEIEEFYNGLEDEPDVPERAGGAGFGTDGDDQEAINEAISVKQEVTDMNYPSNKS
The experiment in a line: Inhibition of full length human SIRT1 expressed in Escherichia coli BL21 (DE3) cells at 100 uM using fluorogenic 7-amino-4-methylcoumarin (AMC)-labeled peptide by fluorescence assay.

For assay [2], the target named is T2, NAD-dependent protein deacetylase sirtuin-2 (Homo sapiens) (UniProt Q8IXJ6).
T2 sequence (whole entry): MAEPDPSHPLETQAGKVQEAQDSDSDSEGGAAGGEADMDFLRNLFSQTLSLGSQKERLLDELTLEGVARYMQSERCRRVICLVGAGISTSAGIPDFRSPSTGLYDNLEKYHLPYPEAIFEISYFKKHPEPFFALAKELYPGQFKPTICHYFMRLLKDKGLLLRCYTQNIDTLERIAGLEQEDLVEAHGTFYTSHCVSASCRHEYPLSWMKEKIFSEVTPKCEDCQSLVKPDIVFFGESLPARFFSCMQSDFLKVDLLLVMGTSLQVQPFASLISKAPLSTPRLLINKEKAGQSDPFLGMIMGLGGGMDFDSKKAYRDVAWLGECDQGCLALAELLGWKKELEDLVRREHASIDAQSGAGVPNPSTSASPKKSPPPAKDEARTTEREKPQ
The assay can be described thus: Inhibition of full length human SIRT2 expressed in Escherichia coli BL21 (DE3) cells at 100 uM using fluorogenic 7-amino-4-methylcoumarin (AMC)-labeled peptide by fluorescence assay.

Assay [3] deals with T3, NAD-dependent protein deacetylase sirtuin-3, mitochondrial (Homo sapiens) (UniProt Q9NTG7).
T3 sequence (whole entry): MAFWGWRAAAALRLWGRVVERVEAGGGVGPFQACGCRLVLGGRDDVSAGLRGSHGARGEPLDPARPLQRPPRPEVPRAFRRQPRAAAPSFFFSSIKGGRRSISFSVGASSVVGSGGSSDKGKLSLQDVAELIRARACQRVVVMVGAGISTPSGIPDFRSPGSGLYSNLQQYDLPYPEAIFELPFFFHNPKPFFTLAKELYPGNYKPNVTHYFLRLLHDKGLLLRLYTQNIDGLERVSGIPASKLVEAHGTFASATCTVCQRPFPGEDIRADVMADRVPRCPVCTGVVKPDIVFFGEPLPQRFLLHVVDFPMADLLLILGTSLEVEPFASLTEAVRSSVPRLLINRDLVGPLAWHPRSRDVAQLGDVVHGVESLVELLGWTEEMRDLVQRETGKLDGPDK
As to conditions: BL21-DE3, 100 uM.

The target in assay [4] is T4, NAD-dependent protein deacetylase sirtuin-1 (Homo sapiens, UniProt Q96EB6).
T4 sequence (Q96EB6 whole entry): T1 sequence (whole entry)
The assay can be described thus: biochemical. Type of assay: cell-based, BL21-DE3.
Description: Inhibition of full length human SIRT1 expressed in Escherichia coli BL21 (DE3) cells using fluorogenic 7-amino-4-methylcoumarin (AMC)-labeled peptide by fluorescence assay

Assay [5] has as its target T5, NAD-dependent protein deacetylase sirtuin-2 (Homo sapiens, UniProt Q8IXJ6).
T5 sequence (Q8IXJ6 whole entry): T2 sequence (whole entry)
The assay can be described thus: Inhibition of full length human SIRT2 expressed in Escherichia coli BL21 (DE3) cells using fluorogenic 7-amino-4-methylcoumarin (AMC)-labeled peptide by fluorescence assay.

pIC50: −log10 of the molar value.

For `O=C(Nc1ccc(S(=O)(=O)O)c2ccccc12)c1ccccc1`, the inhibition (usually how much of the control response was suppressed) was less than 10% in assay [1], 10% in assay [2] and 25% in assay [3].
For the molecule `O=C(Nc1cccc2cc(S(=O)(=O)O)ccc12)c1cccc([N+](=O)[O-])c1`, the inhibition in assay [1] was 13%; in assay [2], 22%; in assay [3], less than 10%.
Turning to `Cc1ccc(C(=O)Nc2cccc3c(Oc4cncc(C(N)=O)c4)cccc23)cc1`, the results for the pIC50 in assay [4] and in assay [5] were 4.73 and 7.11, respectively.
With `Nc1cccc(C(=O)Nc2cccc3cccc(S(=O)(=O)O)c23)c1`, the inhibition in assay [1] was 12%; in assay [2] it was less than 10%; in assay [3] it was less than 10%.
Regarding `Cc1ccc(C(=O)Nc2cccc3cc(S(=O)(=O)O)ccc23)cc1N`, the inhibition in assay [1] is 14%; in assay [2], 13%; in assay [3], less than 10%.
With `Nc1cccc(C(=O)Nc2ccc(S(=O)(=O)O)c3ccccc23)c1`, the inhibition in assay [1], in assay [2] and in assay [3] was less than 10% each time.
As to `Cc1ccc(C(=O)Nc2ccc(S(=O)(=O)O)c3ccccc23)cc1`, the inhibition in assay [1] was determined as 22%; in assay [2] it was 17%; in assay [3], 25%.
The like results for `Cc1ccc(C(=O)Nc2cccc3cccc(S(=O)(=O)O)c23)cc1[N+](=O)[O-]` were, in that order, 26%, less than 10% and less than 10%.
The like results for `NC(=O)c1ccc(Sc2ccc3ccccc3c2)nc1` were, in that order, 31%, 73% and 42%.
The like results for `NC(=O)c1ccc(Sc2ccc3ccccc3c2)cc1` were, in that order, 20%, 41% and less than 10%.
As to `NC(=O)c1cncc(Oc2ccc3c(NC(=O)c4ccccc4)cccc3c2)c1`, the negative logarithm of the IC50 (pIC50) (in general, the IC50 on a negative log10 scale, so that one unit is a factor of ten) in assay [4] is 4.65; in assay [5], 6.36.
For `NC(=O)c1cncc(Oc2cccc3c(NC(=O)c4ccncc4)cccc23)c1`, in that order: 4.81 and 6.02.
Take `Nc1cccc(C(=O)Nc2cccc3cc(S(=O)(=O)O)ccc23)c1`: the inhibition in assay [1], in assay [2] and in assay [3] was less than 10% in each case.
Consider `Cc1ccc(C(=O)Nc2cccc3cccc(S(=O)(=O)O)c23)cc1`, for which the inhibition in assay [1] was less than 10%; in assay [2] it was less than 10%; in assay [3] it was 10%.
Consider `Cc1ccc(C(=O)Nc2cccc3c(Oc4cncc(C(N)=O)c4)cccc23)cc1[N+](=O)[O-]`, for which the results for the pIC50 in assay [4] and in assay [5] were 4.00 and 6.01, respectively.
`NC(=O)c1ccc(Oc2ccc3ccccc3c2)cc1`: the inhibition in assay [1] was less than 10%; in assay [2] it was 16%; in assay [3] it was less than 10%.
Regarding `O=C(Nc1cccc2cccc(S(=O)(=O)O)c12)c1ccccc1`, the inhibition is 17% in assay [1], less than 10% in assay [2] and 15% in assay [3].
For `NC(=O)c1cccc(Oc2ccc3ccccc3c2)c1`, the inhibition was found to be 47% in assay [1], 84% in assay [2] and 49% in assay [3].
On to `NC(=O)c1cncc(Oc2cccc3c(NC(=O)c4cccc([N+](=O)[O-])c4)cccc23)c1`, for which the pIC50 in assay [4] was 4.19; in assay [5], 6.36.
Turning to `NC(=O)c1ccc(Nc2ccc3ccccc3c2)cc1`, the inhibition in assay [1] was less than 10%; in assay [2] it was 15%; in assay [3], 47%.
For the molecule `Cc1ccc(C(=O)Nc2cccc3cc(S(=O)(=O)O)ccc23)cc1`, the inhibition was 19% in assay [1], 24% in assay [2] and 22% in assay [3].
With `NC(=O)c1ccc(Oc2ccc3ccccc3c2)nc1`, the inhibition is 31% in assay [1], 61% in assay [2] and 44% in assay [3].
For `O=C(Nc1ccc(S(=O)(=O)O)c2ccccc12)c1cccc([N+](=O)[O-])c1`, in that order: less than 10%, 29% and 23%.
Regarding `Cc1ccc(C(=O)Nc2cccc3cc(Oc4cncc(C(N)=O)c4)ccc23)cc1`, the negative-log IC50 (pIC50) in assay [4] is 5.42; in assay [5], 6.31.
Take `NC(=O)c1ccc(Sc2cccc3ccccc23)nc1`: the inhibition in assay [1] was 40%; in assay [2] it was 47%; in assay [3] it was 42%.
Turning to `NC(=O)c1ccc(Sc2cccc3ccccc23)cc1`, the inhibition in assay [1] is less than 10%; in assay [2], 24%; in assay [3], less than 10%.
Take `NC(=O)c1ccc(Oc2cccc3ccccc23)nc1`: the inhibition was less than 10% in assay [1], 33% in assay [2] and 39% in assay [3].
The like results for `NC(=O)c1cccc(Oc2cccc3ccccc23)c1` were, in that order, 35%, 66% and 35%.
Take `NC(=O)c1cncc(Oc2ccc3c(NC(=O)c4cccc([N+](=O)[O-])c4)cccc3c2)c1`: the figures for the pIC50 in assay [4] and in assay [5] were 4.93 and 6.09, respectively.
Consider `O=C(Nc1cccc2cccc(S(=O)(=O)O)c12)c1cccc([N+](=O)[O-])c1`, for which the inhibition in assay [1], in assay [2] and in assay [3] was less than 10% in each case.
As to `NC(=O)c1cccc(Nc2cccc3ccccc23)c1`, the inhibition is less than 10% in assay [1], 46% in assay [2] and less than 10% in assay [3].
Take `Cc1ccc(C(=O)Nc2ccc(S(=O)(=O)O)c3ccccc23)cc1[N+](=O)[O-]`: the results for the inhibition in assay [1], in assay [2] and in assay [3] were 23%, 25% and 22%, respectively.
For the molecule `NC(=O)c1cccc(Nc2ccc3ccccc3c2)c1`, the inhibition in assay [1] is less than 10%; in assay [2] it was 65%; in assay [3] it was less than 10%.
For the molecule `Cc1ccc(C(=O)Nc2cccc3cccc(S(=O)(=O)O)c23)cc1N`, the inhibition in assay [1] was 12%; in assay [2], less than 10%; in assay [3], 16%.
In assay [4], `N#C/C(=C\c1ccc(-c2cc(Cl)ccc2Cl)o1)C(=O)Nc1cccc2ncccc12` had a pIC50 of 3.87.
Turning to `NC(=O)c1ccc(Nc2ccc3ccccc3c2)nc1`, the inhibition in assay [1] was less than 10%; in assay [2] it was 20%; in assay [3] it was less than 10%.
Turning to `NC(=O)c1ccc(Nc2cccc3ccccc23)nc1`, the inhibition in assay [1] came to 19%; in assay [2], 41%; in assay [3] it was 38%.
For the molecule `Cc1ccc(C(=O)Nc2cccc3cc(S(=O)(=O)O)ccc23)cc1[N+](=O)[O-]`, the inhibition was 19% in assay [1], 38% in assay [2] and less than 10% in assay [3].
As for `NC(=O)c1ccc(Nc2cccc3ccccc23)cc1`, the results for the inhibition in assay [1], in assay [2] and in assay [3] were less than 10%, less than 10% and 22%, respectively.
For the molecule `O=C(Nc1cccc2cc(S(=O)(=O)O)ccc12)c1ccccc1`, the results for the inhibition in assay [1], in assay [2] and in assay [3] were less than 10%, less than 10% and 21%, respectively.
On to `Cc1ccc(C(=O)Nc2ccc(S(=O)(=O)O)c3ccccc23)cc1N`, for which the inhibition in assay [1] was 11%; in assay [2] it was 13%; in assay [3], less than 10%.
For `NC(=O)c1ccc(Oc2cccc3ccccc23)cc1`, in that order: less than 10%, 27% and 10%.
